Experiments:
EGFR (L858R) = target: T1, EGFR (L858R) (Homo sapiens, UniProt P00533, L858R); assay: EGFR Tyrosine Kinase Inhibiting Activity Measurement 1 (ADP-Glo), L858R; format: biochemical; conditions: 1 h incubation with ATP/Poly(Glu, Tyr); >10: <50% enzyme inhibition at 10 μM
T1 construct: purchased Promega V5322
Experimental: (§1) The measurement was carried out according to the Promega protocol applications guide. That is, a buffer solution (40 mM Tris-HCl, pH 7.5, 20 mM MgCl2, 50 μM DTT and 0.1 mg/mL BSA) was used as a dilute solution. The concentration of each compound started at 100 μM (the final concentration, including 1% DMSO) with 5-fold dilutions with the buffer solution. Thus, ten concentrations of each compound were prepared. The initial concentration of PD158780 alone was set at 10 μM (the final concentration, including 1% DMSO) but it was prepared in the same manner as the compound group. Then, 2 μL of each concentration of each compound thus obtained was added to each well of a 384-well plate. Furthermore, 4 μL (20 ng) of an EGFR Kinase Buffer that came with each EGFR Kinase Enzyme System was added to each well, which then was incubated at room temperature for ten minutes. Subsequently, 4 μL of mixed solution of ATP (10 μM) and Poly(Glu, Tyr) (2 μg) substrate was added to each well, which then was incubated at room temperature for one hour. Then, 10 μL of ADP-Glo™ Reagent (ADP-Glo™ Kinase Assay, Promega) was added to each well, which then was reacted at room temperature for 40 minutes. Furthermore, 20 μL of Kinase Detection Reagent (ADP-Glo™ Kinase Assay, Promega) was added to each well, which then was reacted at room temperature for one hour. […] From the data thus obtained, dose-response curves and IC50 were calculated using GraphPad Prism 5 (GraphPad Software, Inc.).

EGFR (T790M, L858R) = target: T2, EGFR (T790M, L858R) (Homo sapiens, UniProt P00533, L858R/T790M); assay: EGFR Tyrosine Kinase Inhibiting Activity Measurement 1 (ADP-Glo), DM; format: biochemical; conditions: 1 h incubation with ATP/Poly(Glu, Tyr); >10: <50% enzyme inhibition at 10 μM
T2 construct: purchased Promega V5324
T2 sequence (P00533 25-1210 T790M/L858R): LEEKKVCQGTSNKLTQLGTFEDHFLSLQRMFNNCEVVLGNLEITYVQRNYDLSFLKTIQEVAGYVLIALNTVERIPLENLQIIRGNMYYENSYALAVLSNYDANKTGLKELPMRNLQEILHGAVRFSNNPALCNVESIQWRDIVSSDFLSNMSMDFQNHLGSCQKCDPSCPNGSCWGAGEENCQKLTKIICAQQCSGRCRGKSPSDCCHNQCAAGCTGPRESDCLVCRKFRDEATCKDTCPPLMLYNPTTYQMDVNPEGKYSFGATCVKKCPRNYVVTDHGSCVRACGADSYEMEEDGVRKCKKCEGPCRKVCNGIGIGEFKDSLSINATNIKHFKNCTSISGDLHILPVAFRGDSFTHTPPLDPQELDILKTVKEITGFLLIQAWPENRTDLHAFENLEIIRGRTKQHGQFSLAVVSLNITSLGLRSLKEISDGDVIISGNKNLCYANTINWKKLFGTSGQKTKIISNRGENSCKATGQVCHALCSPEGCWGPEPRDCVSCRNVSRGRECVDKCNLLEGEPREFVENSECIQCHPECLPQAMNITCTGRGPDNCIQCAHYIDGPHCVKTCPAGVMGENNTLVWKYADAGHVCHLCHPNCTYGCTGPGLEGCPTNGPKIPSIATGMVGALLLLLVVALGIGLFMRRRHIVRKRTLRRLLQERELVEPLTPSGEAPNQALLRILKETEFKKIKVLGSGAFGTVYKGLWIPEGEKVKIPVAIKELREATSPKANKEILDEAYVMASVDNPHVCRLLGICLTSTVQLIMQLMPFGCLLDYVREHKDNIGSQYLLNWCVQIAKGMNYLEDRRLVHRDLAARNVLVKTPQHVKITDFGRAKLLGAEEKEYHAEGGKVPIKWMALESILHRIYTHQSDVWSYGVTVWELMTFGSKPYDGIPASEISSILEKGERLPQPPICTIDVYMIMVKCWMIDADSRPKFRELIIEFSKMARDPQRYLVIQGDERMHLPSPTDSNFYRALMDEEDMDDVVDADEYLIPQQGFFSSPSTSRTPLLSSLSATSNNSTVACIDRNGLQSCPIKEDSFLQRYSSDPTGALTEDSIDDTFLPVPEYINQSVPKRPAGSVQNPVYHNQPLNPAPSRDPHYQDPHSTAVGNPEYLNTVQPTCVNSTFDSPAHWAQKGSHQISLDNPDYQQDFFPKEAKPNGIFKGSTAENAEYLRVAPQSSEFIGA
Experimental: as §1

[1] = target: T3, EGFR (EGFR Kinase Enzyme System, WT) (Homo sapiens, UniProt P00533); assay: EGFR Tyrosine Kinase Inhibiting Activity Measurement 1 (ADP-Glo), WT; format: biochemical; conditions: for IC50: 1 h incubation with ATP/Poly(Glu, Tyr), >10: <50% enzyme inhibition at 10 μM
T3 construct: purchased Promega V3831
T3 sequence (P00533 25-1210): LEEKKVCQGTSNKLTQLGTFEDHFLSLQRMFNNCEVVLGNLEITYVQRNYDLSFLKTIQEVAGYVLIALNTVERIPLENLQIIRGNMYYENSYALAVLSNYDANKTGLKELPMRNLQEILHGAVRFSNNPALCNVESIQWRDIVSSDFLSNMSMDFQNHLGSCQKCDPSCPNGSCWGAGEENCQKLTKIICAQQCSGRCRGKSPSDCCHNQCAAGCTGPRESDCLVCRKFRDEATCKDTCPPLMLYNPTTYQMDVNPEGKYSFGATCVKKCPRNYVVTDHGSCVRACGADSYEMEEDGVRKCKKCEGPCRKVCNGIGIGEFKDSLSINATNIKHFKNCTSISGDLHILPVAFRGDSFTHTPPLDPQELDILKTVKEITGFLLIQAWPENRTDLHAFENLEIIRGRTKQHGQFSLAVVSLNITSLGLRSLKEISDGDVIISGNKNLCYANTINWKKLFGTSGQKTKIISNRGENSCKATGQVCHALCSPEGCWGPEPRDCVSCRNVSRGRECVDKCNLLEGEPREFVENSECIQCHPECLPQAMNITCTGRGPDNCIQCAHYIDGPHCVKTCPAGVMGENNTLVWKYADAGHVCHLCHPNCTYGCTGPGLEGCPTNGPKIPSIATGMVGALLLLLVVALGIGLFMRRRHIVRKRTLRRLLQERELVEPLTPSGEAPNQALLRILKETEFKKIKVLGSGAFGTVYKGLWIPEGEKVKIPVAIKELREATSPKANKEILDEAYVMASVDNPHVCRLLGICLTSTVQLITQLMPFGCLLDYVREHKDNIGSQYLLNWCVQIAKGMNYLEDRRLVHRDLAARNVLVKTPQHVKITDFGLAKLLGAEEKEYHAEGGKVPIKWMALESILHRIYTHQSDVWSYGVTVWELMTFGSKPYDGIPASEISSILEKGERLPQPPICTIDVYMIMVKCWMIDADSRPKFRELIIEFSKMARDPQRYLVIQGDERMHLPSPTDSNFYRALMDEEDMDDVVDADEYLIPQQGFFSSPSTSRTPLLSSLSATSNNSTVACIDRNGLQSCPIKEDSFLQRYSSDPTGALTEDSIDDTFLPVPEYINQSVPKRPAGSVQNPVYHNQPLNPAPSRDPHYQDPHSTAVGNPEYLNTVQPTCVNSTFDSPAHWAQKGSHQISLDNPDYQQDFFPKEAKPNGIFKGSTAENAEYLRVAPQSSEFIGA
Experimental: as §1

EGFR (T790M) = target: T4, EGFR (T790M) (Homo sapiens, UniProt P00533, T790M); assay: EGFR Tyrosine Kinase Inhibiting Activity Measurement 1 (ADP-Glo), T790M; format: biochemical; conditions: 1 h incubation with ATP/Poly(Glu, Tyr); >10: <50% enzyme inhibition at 10 μM
T4 construct: purchased Promega V4506
T4 sequence (P00533 25-1210 T790M): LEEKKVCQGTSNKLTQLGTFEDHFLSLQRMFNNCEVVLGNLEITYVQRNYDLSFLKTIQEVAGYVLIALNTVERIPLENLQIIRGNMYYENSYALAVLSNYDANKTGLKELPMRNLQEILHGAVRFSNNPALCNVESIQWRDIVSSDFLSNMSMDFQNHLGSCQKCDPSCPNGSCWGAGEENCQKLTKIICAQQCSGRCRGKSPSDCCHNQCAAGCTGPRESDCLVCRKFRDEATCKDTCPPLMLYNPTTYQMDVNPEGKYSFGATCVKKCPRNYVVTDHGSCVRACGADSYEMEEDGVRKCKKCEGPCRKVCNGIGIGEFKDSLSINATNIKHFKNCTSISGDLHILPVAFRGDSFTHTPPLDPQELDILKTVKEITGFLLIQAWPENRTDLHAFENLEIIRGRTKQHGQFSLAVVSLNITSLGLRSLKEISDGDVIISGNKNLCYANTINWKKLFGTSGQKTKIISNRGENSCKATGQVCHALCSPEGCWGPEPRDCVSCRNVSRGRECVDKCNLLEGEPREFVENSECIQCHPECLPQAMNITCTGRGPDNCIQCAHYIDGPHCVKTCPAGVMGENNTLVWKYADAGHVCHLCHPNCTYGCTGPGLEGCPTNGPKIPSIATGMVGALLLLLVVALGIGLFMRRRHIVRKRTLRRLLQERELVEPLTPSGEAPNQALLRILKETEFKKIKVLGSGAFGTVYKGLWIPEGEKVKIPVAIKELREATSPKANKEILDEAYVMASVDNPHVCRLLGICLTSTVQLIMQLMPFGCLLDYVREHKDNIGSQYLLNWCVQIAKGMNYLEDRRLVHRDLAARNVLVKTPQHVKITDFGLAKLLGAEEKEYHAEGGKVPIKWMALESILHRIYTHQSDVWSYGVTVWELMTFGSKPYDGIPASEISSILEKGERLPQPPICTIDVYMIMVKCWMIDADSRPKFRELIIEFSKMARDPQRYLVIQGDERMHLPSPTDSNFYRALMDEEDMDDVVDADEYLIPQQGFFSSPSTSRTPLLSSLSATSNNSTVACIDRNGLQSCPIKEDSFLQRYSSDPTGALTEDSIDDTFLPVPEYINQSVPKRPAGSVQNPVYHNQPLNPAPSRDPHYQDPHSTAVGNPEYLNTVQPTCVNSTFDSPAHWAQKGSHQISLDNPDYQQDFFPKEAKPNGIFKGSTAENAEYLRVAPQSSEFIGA
Experimental: as §1

L858R-mutated EGFR = target: T5, L858R-mutated EGFR (Homo sapiens, UniProt P00533, L858R); assay: EGFR Tyrosine Kinase Inhibiting Activity Measurement 2, L858R; format: biochemical
T5 construct: purchased Promega V5322
Experimental: as §1, with “minutes.” for “minutes. Furthermore, 20 μL of Kinase Detection Reagent (ADP-Glo™ Kinase Assay, Promega) was added to each well, which then was reacted at room temperature for one hour.”

L858R/T790M-mutated EGFR = target: T6, L858R/T790M-mutated EGFR (Homo sapiens, UniProt P00533, L858R/T790M); assay: EGFR Tyrosine Kinase Inhibiting Activity Measurement 2, L858R/T790M; format: biochemical
T6 construct: purchased Promega V5324
Experimental: as §1, with “minutes.” for “minutes. Furthermore, 20 μL of Kinase Detection Reagent (ADP-Glo™ Kinase Assay, Promega) was added to each well, which then was reacted at room temperature for one hour.”

[2] = tested on: H1975 tumor-bearing mouse; assay: PET/CT Imaging 2; format: in vivo; conditions: 180 to 200 min after administration; FIG. 6
Experimental: PET/CT Imaging 2 was carried out in the same manner as in PET/CT Imaging 1 except that a H1975 tumor-bearing mouse was used and the following imaging conditions were employed.
Animal: Balb/c nu/nu mouse, 9 w, male, 20.9 g
Injection dose: 486 μCi/150 μL
(§2) Image acquisition: 180 to 200 min after administration
(§3) Condition of CT: 60 kV, 320 μA

[3] = tested on: H3255 cells (L858R mutation); assay: Cellular Uptake Inhibition Experiment 1 (gefitinib), H3255; format: cell-based, human; conditions: gefitinib 0, 0.5, 1, 2.5 μM, 2 h incubation; FIG. 1
Experimental: (§4) Two types of EGFR mutation-positive human non-small cell lung cancer cells H3255 (L858R mutation) and H1975 (L858R/T790M mutation) were cultured in a DMEM/Ham's F-12 medium (Nacalai Tesque) containing glutamine, antibiotics (penicillin-streptomycin), and 20% fetal bovine serum.
(§5) The binding specificity of H4 to each mutated EGFR-TK was evaluated by a cellular uptake inhibition experiment using H3255 cells, which are L858R mutant cells, and H1975 cells, which are L858R/T790M mutant cells. H3255 and H1975 cells (4×10^5 cells/well) were cultured in a 12-well plate for 48 hours. After the medium was removed, each well was washed with PBS(−) once. Each fetal bovine serum-free DMEM/Ham's F-12 medium with [^18F]H4 (0.15 MBq/mL) and gefitinib (0, 0.5, 1, and 2.5 μM) added thereto was added to each well, which then was incubated in a CO2 incubator for two hours. Each well was washed with 0.1% Tween 80/1% DMSO/PBS(−) three times, and the cells were dissolved with 0.2 N NaOH. The radioactivity of each solution was measured with the gamma counter, and the protein concentration was determined using a BCA Protein Assay Kit (Pierce, Rockford, Ill.) and then the measurement results were analyzed.

[4] = tested on: H1975 cells (L858R/T790M mutation); assay: Cellular Uptake Inhibition Experiment 2 (AZD9291), H1975; format: cell-based, human; conditions: regardless of AZD9291 (0, 1, 5 μM), 2 h incubation; FIG. 2
Experimental: as §4
(§6) H3255 and H1975 cells (4×10^5 cells/well) were cultured in a 12-well plate for 24 hours. After the medium was removed, each well was washed with PBS(−) once. […] [^18F]H4 (148 kBq/well) was added to each well, which then was incubated in the 5% CO2 incubator at 37° C. for two hours. Each well was washed with 0.1% Tween 80/1% DMSO/PBS(−) three times, and the cells were dissolved with 0.2 N NaOH. The radioactivity of each solution was measured with the gamma counter and the protein concentration was determined using the BCA Protein Assay Kit (Pierce, Rockford, Ill.) and then the measurement results were analyzed.

[5] = tested on: H3255 cells (L858R mutation); assay: Cellular Uptake Inhibition Experiment 2 (AZD9291), H3255; format: cell-based, human; conditions: AZD9291 0, 1, 5 μM pre-incubated 30 min, then 2 h; FIG. 2
Experimental: as §4, §6

[6] = tested on: H3255 tumor-bearing mouse; assay: PET/CT Imaging 1; format: in vivo; conditions: 180 to 200 min after tail vein administration; FIG. 5
Experimental: [^18F]H4 (9.8 MBq/150 μL) was administered to a H3255 tumor-bearing mouse through a tail vein. He was anesthetized by inhalation of isoflurane (2.0%) from 175 minutes after the administration and then was imaged for 20 minutes from 180 minutes after the administration using a PET/CT device (FX-3300). Thereafter, CT imaging (60 kV, 320 μA) was carried out. The image reconstruction was carried out using 3D-OSEM.
Animal: Balb/c nu/nu mouse, 10 w, male, 22.2 g
Injection dose: 264 μCi/150 μL
as §2, §3

[7] = tested on: H3255 tumor-bearing mouse; assay: Biodistribution Experiment in tumor-bearing mice; format: in vivo
Experimental: 1×10^7 cells/mouse of H3255 cells suspended in BD Matrigel™ Basement Membrane Matrix was implanted to the right shoulder of a 5-week-old male BALB/c nu/nu mouse (Shimizu Laboratory Supplies), and thereby a tumor-bearing mouse was prepared. They were used for experiments, with the tumor being 1 cm or smaller in diameter.
[^18F]H4 was dissolved in saline containing 0.1% Tween 80 so as to be 6 μCi/100 μL and 100 μL thereof was administered to each tumor-bearing mouse through a tail vein. The mice were decapitated/slaughtered at predetermined time points (30 minutes, 1 hour, 2 hours, and 3 hours after administration). The blood was collected and tissues were removed and then the mass and the accumulated radioactivity were measured. The amount of accumulation (% dose/g) was calculated from the radioactivity per unit weight and the accumulation in the tissues was evaluated. FIG. 3 is a graph showing an example of variations with time of the accumulation of [^18F]H4 in each organ.

[8] = tested on: H3255 tumor (L858R mutation); assay: Biodistribution Experiment (Blocking Experiment), H3255; format: in vivo, mouse; conditions: AZD9291 (17 μg) administered simultaneously, 180 min after administration; FIG. 4
Experimental: At 180 minutes after the administration, they were slaughtered and H3255 tumor tissues were removed. The mass and the accumulated radioactivity were measured, and the amount of accumulation (% dose/g) was calculated from the radioactivity per unit weight. […]

[9] = tested on: H1975 tumor (L858R/T790M mutation); assay: Biodistribution Experiment (Blocking Experiment), H1975; format: in vivo, mouse; conditions: with or without AZD9291 (17 μg), 180 min after administration; FIG. 4
Experimental: At 180 minutes after the administration, they were slaughtered and H3255 tumor tissues were removed. The mass and the accumulated radioactivity were measured, and the amount of accumulation (% dose/g) was calculated from the radioactivity per unit weight. This was carried out in the same manner as above except that AZD9291 was not administered.
Furthermore, this experiment was carried out in the same manner as above except that H1975 tumor-bearing mice were used.

[10] = tested on: H1975 cells (L858R/T790M mutation); assay: Cellular Uptake Inhibition Experiment 1 (gefitinib), H1975; format: cell-based, human; conditions: regardless of gefitinib (0, 0.5, 1, 2.5 μM), 2 h incubation; FIG. 1
Experimental: as §4, §5

[11] = 30 min after tail vein administration, average of 5 mice
[12] = 60 min after tail vein administration, average of 5 mice
[13] = 120 min after tail vein administration, average of 5 mice
[14] = 180 min after tail vein administration, average of 5 mice
[15] = from 30 min to 180 min after administration

T1 sequence (P00533 25-1210 L858R): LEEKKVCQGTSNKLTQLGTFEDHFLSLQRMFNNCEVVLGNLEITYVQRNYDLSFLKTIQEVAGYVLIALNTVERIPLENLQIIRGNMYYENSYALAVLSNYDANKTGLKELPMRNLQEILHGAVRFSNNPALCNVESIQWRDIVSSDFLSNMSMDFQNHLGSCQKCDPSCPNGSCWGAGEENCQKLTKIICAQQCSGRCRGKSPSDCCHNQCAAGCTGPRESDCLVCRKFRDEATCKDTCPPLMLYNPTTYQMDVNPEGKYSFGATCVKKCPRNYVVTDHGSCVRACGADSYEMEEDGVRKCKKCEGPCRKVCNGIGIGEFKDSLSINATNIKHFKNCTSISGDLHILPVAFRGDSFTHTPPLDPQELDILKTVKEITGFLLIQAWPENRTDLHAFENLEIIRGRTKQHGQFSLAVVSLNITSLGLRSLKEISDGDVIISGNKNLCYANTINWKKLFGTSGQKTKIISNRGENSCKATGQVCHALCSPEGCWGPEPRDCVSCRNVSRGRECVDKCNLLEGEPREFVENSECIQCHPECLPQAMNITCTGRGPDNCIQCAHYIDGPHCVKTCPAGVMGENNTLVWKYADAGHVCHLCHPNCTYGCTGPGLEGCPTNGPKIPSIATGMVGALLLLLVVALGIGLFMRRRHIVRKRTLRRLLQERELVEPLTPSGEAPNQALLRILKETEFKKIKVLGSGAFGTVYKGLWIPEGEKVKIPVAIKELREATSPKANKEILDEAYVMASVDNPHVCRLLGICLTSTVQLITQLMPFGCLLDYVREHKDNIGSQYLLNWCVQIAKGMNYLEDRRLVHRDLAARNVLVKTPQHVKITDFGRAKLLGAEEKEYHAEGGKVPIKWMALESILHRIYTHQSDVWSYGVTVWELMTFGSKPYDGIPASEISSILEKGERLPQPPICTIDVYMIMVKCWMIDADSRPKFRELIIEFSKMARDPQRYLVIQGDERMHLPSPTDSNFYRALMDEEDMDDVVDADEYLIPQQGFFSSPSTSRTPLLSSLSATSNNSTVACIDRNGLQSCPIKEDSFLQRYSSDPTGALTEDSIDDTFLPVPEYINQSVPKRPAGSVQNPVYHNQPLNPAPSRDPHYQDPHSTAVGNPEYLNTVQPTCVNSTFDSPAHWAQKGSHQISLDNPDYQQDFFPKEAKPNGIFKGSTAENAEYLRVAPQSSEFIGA

FCCNc1cc2c(Nc3cccc(Br)c3)ncnc2cn1 [Compound H1, 4-[(3-Bromophenyl)amino]-6-(2-fluoroethylamino)pyrido[3,4-d]pyrimidine]
IC50 (EGFR (L858R)): 15 nM | IC50 (EGFR (T790M, L858R)): 4020 nM | IC50 [1]: 17 nM | IC50 (EGFR (T790M)): 4110 nM

O=C(/C=C/CN1CCN(CCF)CC1)Nc1cc2c(Nc3cccc(Br)c3)ncnc2cn1 [Compound H4, (E)-N-(4-((3-Bromophenyl)amino)pyrido[3,4-d]pyrimidin-6-yl)-4-(4-(2-fluoroethyl)piperazin-1-yl)but-2-enamide]
IC50 (L858R-mutated EGFR; 2 h incubation after ATP and Poly(Glu, Tyr) substrate were added, read-out: EGFR Kinase Inhibition: IC50, L858R): 15.6 ± 0.8 nM | binding affinity to the L858R-mutated EGFR (in words) (L858R-mutated EGFR; comment on Table 2): relatively high binding affinity | IC50 (EGFR (L858R)): 58 nM | IC50 (L858R/T790M-mutated EGFR; 2 h incubation after ATP and Poly(Glu, Tyr) substrate were added, read-out: EGFR Kinase Inhibition: IC50, L858R/T790M): 326 ± 64 nM | binding affinity to the L858R/T790M-mutated EGFR (in words) (L858R/T790M-mutated EGFR; comment on Table 2): lower than AZD9291 and was higher than Erlotinib | IC50 (EGFR (T790M, L858R)): 406 nM | IC50 [1]: 49 nM | IC50 (EGFR (T790M)): 409 nM

FCCOc1cccc(Nc2ncnc3cnc(NCCN4CCOCC4)cc23)c1 [Compound H2, N^4-(3-(2-Fluoroethoxy)phenyl)-N^6-(2-morpholinoethyl)pyrido[3,4-d]pyrimidine-4,6-diamine]
IC50 (EGFR (L858R)): 653 nM | IC50 (EGFR (T790M, L858R)): > 10000 nM | IC50 [1]: 7210 nM | binding affinity to the wild-type EGFR (in words) ([1]; comment on Table 1): low binding affinity | IC50 (EGFR (T790M)): > 10000 nM

O=C(/C=C/CN1CCN(CC[18F])CC1)Nc1cc2c(Nc3cccc(Br)c3)ncnc2cn1 [[^18F]H4, (E)-N-(4-((3-Bromophenyl)amino)pyrido[3,4-d]pyrimidin-6-yl)-4-(4-(2-[^18F]fluoroethyl)piperazin-1-yl)but-2-enamide]
accumulation in PET/CT image, H1975 implant [2]: no specific accumulation | uptake of [^18F]H4 into the H3255 cells [3]: inhibited by gefitinib | uptake of [^18F]H4 into the H1975 cells [4]: approximately 50 % ID/mg protein | uptake of [^18F]H4 into the H3255 cells [5]: inhibited by AZD9291 | accumulation in PET/CT image, H3255 implant [6]: accumulated specifically in the portion where H3255 was implanted | Tumor/Blood Ratio [7, 11]: 1.99 | Tumor/Muscle Ratio [7, 11]: 3.47 | Tumor/Blood Ratio [7, 12]: 3.24 | Tumor/Muscle Ratio [7, 12]: 8.89 | Tumor/Blood Ratio [7, 13]: 3.28 | Tumor/Muscle Ratio [7, 13]: 5.75 | Tumor/Blood Ratio [7, 14]: 3.03 | Tumor/Muscle Ratio [7, 14]: 9.29 | Tumor/Blood Ratio [7, 15]: around 3 | Tumor/Muscle Ratio [7, 15]: exceeded 5 | metabolism and excretion (transition from the liver to the intestine) ([7]; tumor-bearing mice, 30 to 180 min after administration, FIG. 3): quickly metabolized and excreted | reduction in accumulation of [^18F]H4 in the H3255 tumor [8]: 54% | change of accumulation of [^18F]H4 in the H1975 tumor [9]: hardly changed | uptake of [^18F]H4 into the H1975 cells [10]: approximately 50 % ID/mg protein

Fc1ccc(Nc2ncnc3cnc(NCCN4CCOCC4)cc23)cn1 [Compound H3, N^4-(6-Fluoropyridin-3-yl)-N^6-(2-morpholinoethyl)pyrido[3,4-d]pyrimidin-4,6-diamine]
IC50 (EGFR (L858R)): 686 nM | IC50 (EGFR (T790M, L858R)): > 10000 nM | IC50 [1]: 3750 nM | IC50 (EGFR (T790M)): > 10000 nM

CNc1cc2c(Nc3cccc(Br)c3)ncnc2cn1 [PD158780, reference compound]
IC50 [1]: 6 nM

From patent US10029022B2, “Nuclear medicine diagnostic imaging agent” (Kyoto University, priority 2015, dated 2018)
